Earlier results as cited in patent US20100022462A1, “APPETITE S[…] COLON CLEANSING COMPOSITION” (priority 2008, published 2010).

Test system: lipase
Conditions: background statement on the marketed drug; no test conditions given

CCCCCCCCCCC[C@@H](C[C@@H]1OC(=O)[C@H]1CCCCCC)OC(=O)[C@H](CC(C)C)NC=O [XENICAL, orlistat]
decreasing dietary fat absorption: 30%
